In patent US20100324067A1, “TETRACYCLIC DIPYRANO-COUMARIN COMPOUNDS WITH ANTI-HIV AND ANTI-MYCOBACTERIUM TUBERCULOSIS ACTIVITIES” (priority 2007, published 2010):
pEC50: −log10 of the molar value. In brackets after ≈: the same amount, converted by molar mass. Where two headings read alike, the source gives them in different places.

Key:
[1] = tested on: Mycobacterium tuberculosis H37Rv (ATCC 27294); test: Microplate Alamar Blue Assay (MABA) in BACTEC 12B medium (TAACF screen); format: cell-based
HIV-1 = test: Inhibitory activity against HIV-1 (literature method, Chen et al. J Virol 1997); conditions: for inhibition at 1 µM: Human immunodeficiency virus 1, read-out: Anti-HIV (%, 1.0 μM)
Procedure: Inhibitory activity of the coumarin derivatives of the present invention against HIV-1.
Inhibitory activity of the compounds against HIV-1 is assayed using the literature method. The experimental conditions, procedures, reagents and so on of the experiment are referred to the reference of “ZHIWEI CHEN, PEI ZHOU, DAVID D. HO, et al. Genetically divergent strains of simian immuno-deficiency virus use CCR5 as a coreceptor for entry. Journal of Virology, 1997, 71(4): 2705-2714”.

[2] = read-out: anti-TB active compound (MIC90 less than 10 μg/mL), classification

SMILES | MIC90 ([1]; MABA, H37Rv, read-out: MIC90) [µg/mL] | IC50 ([1]; MABA, H37Rv, read-out: IC50) [µg/mL] | melting point [°C] | MIC90 [1, 2] [µg/mL] | also measured
CCCc1cc(=O)oc2c3c(c4c(c12)OC(C)(C)C=C4)OC(c1ccccc1)CC3=O (stereo not drawn) [Example 16, 6,6-dimethyl-4-n-propyl-10-phenyl-2H,6H,12H-benzo[1,2-b:3,4-b′:5,6-b″]-tripyranyl-2,12-dione] | > 100 | – | – | – | IC50 [1]: 2.91 µg/mL (≈ 6.99 µM); inhibition at 1 µM (HIV-1): 62.7%
CCCc1c(F)c(=O)oc2c3c(c4c(c12)OC(CCC)C=C4)OC(C)CC3=O (stereo not drawn) [Example 32, 10-methyl-3-fluoro-4,6-di(-n-propyl)-2H,6H,12H-benzo[1,2-b:3,4-b′:5,6-b″]-tripyranyl-2,12-dione] | > 100 | 78.3 (≈ 203 µM) | 123 to 124 | – | –
CCCc1cc(=O)oc2c3c(c4c(c12)OC(c1ccccc1N)C=C4)OC(C)CC3=O (stereo not drawn) [Example 99] | 15.5 (≈ 37.1 µM) | 7.49 (≈ 17.9 µM) | 175 to 177 | – | –
CCCc1cc(=O)oc2c3c(c4c(c12)OC(C)(C)C=C4)OC(CN=[N+]=[N-])CC3=O (stereo not drawn) [Example 58] | 54.9 (≈ 139 µM) | 34.5 (≈ 87.2 µM) | 116 to 117 | – | –
CCCc1c(F)c(=O)oc2c3c(c4c(c12)OC(c1ccccc1)C=C4)OC(C)CC3=O (stereo not drawn) [Example 43, 10-methyl-4-n-propyl-6-phenyl-3-fluoro-2H,6H,12H-benzo[1,2-b:3,4-b′:5,6-b″]-tripyranyl-2,12-dione] | 10.8 (≈ 25.7 µM) | 6.42 (≈ 15.3 µM) | 128 to 129 | – | –
CCCc1c(F)c(=O)oc2c3c(c4c(c12)OC(C)C=C4)OC(C)CC3=O (stereo not drawn) [Example 84, 6,10-dimethyl-4-n-propyl-3-fluoro-2H,6H,12H-benzo[1,2-b:3,4-b′:5,6-b″]-tripyranyl-2,12-dione] | 27.7 (≈ 77.3 µM) | 17.3 (≈ 48.3 µM) | 150 to 153 | – | –
CCCc1cc(=O)oc2c3c(c4c(c12)OC(C)(C)C=C4)OC(CNC(=O)Nc1ccc(F)cc1)CC3=O (stereo not drawn) [Example 60, 6,6-dimethyl-4-n-propyl-10-(p-fluorophenylureido)methylene-2H,6H,12H-benzo[1,2-b:3,4-b′:5,6-b″]-tripyranyl-2,12-dione] | > 100 | 32.5 (≈ 64.3 µM) | 119 to 120.5 | – | –
CCc1c(F)c(=O)oc2c3c(c4c(c12)OCC(C)=C4)OC(C)CC3=O (stereo not drawn) [Example 93, 4-ethyl-3-fluoro-7,10-dimethyl-2H,6H,12H-benzo[1,2-b:3,4-b′:5,6-b″]-tripyranyl-2,12-dione] | > 100 | 76.2 (≈ 221 µM) | 118 to 120 | – | –
CC1CC(=O)c2c(c3c(c4c(-c5ccc(N)cc5)cc(=O)oc24)OC(C)(C)C=C3)O1 (stereo not drawn) [Example 23, 6,6,10-trimethyl-4-p-aminophenyl-2H,6H,12H-benzo[1,2-b:3,4-b′:5,6-b″]-tripyranyl-2,12-dione] | 27.6 (≈ 68.4 µM) | 24.2 (≈ 60 µM) | 149 to 151 | – | –
CCCc1cc(=O)oc2c(-c3cccn3Cc3ccccn3)c(O)c3c(c12)OC(C)(C)C=C3 [Example 68, 5-hydroxy-6-(1′-(2-pyridyl)methylene-1′H-pyrrolyl-2′-ene)-2,2-dimethyl-10-n-propyl-2H-benzo-[2,3-f]-pyranyl-8-one] | 44.9 (≈ 101 µM) | 33 (≈ 74.6 µM) | 171 to 173 | – | –
CCCc1c(Cl)c(=O)oc2c3c(c4c(c12)OC(CC)C=C4)OC(C)CC3=O (stereo not drawn) [Example 54, 10-methyl-4-n-propyl-6-ethyl-3-chloro-2H,6H,12H-benzo[1,2-b:3,4-b′:5,6-b″]-tripyranyl-2,12-dione] | 61.8 (≈ 159 µM) | 36.5 (≈ 93.9 µM) | 145 to 147 | – | –
CCCc1cc(=O)oc2c3c(c4c(c12)OC(CC)C=C4)OC(C)CC3=O (stereo not drawn) [Example 52, 10-methyl-4-n-propyl-6-ethyl-2H,6H,12H-benzo[1,2-b:3,4-b′:5,6-b″]-tripyranyl-2,12-dione] | 13.4 (≈ 37.8 µM) | 11.8 (≈ 33.2 µM) | 139 to 141 | – | –
CCCCC1C=Cc2c3c(c4oc(=O)c(F)c(CC)c4c2O1)C(=O)CC(C)O3 (stereo not drawn) [Example 40] | 2.47 (≈ 6.39 µM) | 1.58 (≈ 4.1 µM) | 142 to 143 | < 10 | –
CCCc1cc(=O)oc2c3c(c4c(c12)OC(c1ccccc1)C=C4)OC(C)CC3=O (stereo not drawn) [Example 41, 10-methyl-4-n-propyl-6-phenyl-2H,6H,12H-benzo[1,2-b:3,4-b′:5,6-b″]-tripyranyl-2,12-dione] | 3.27 (≈ 8.12 µM) | 2.92 (≈ 7.25 µM) | 96 to 99 | < 10 | –
C/C=C/C1C=Cc2c3c(c4oc(=O)cc(CCC)c4c2O1)C(=O)CC(C)O3 (stereo not drawn) [Example 85, 4-n-propyl-6-propenyl-1-methyl-2H,6H,12H-benzo[1,2-b:3,4-b′:5,6-b″]-tripyranyl-2,12-dione] | 4.86 (≈ 13.3 µM) | 2.08 (≈ 5.68 µM) | 136 to 138 | < 10 | –
Cc1c(C)c2c3c(c4c(c2oc1=O)C(=O)CC(C)O4)C=CC(C)(C)O3 (stereo not drawn) [Example 2, 3,4,6,6,10-pentamethyl-2H,6H,12H-benzo[1,2-b:3,4-b′:5,6-b″]-tripyranyl-2,12-dione] | 35.2 (≈ 103 µM) | 20.3 (≈ 59.7 µM) | 142 to 144 | – | –
CCc1c(F)c(=O)oc2c3c(c4c(c12)OC(c1ccccc1)C=C4)OC(C)CC3=O (stereo not drawn) [Example 42, 10-methyl-4-ethyl-6-phenyl-3-fluoro-2H,6H,12H-benzo[1,2-b:3,4-b′:5,6-b″]-tripyranyl-2,12-dione] | 6.81 (≈ 16.7 µM) | 5.56 (≈ 13.7 µM) | 109 to 111 | < 10 | –
CCCc1cc(=O)oc2c3c(c4c(c12)OC(C)(C)C=C4)OC(C)CC3=O (stereo not drawn) [Example 11, 6,6,10-trimethyl-4-n-propyl-2H,6H,12H-benzo[1,2-b:3,4-b′:5,6-b″]-tripyranyl-2,12-dione] | – | – | – | – | inhibition at 1 µM (HIV-1): 73.1%
CCCCc1cc(=O)oc2c3c(c4c(c12)OC(CCCC)C=C4)OC(C)CC3=O (stereo not drawn) [Example 38] | 14.4 (≈ 36.4 µM) | 10.4 (≈ 26.3 µM) | 146 to 148 | – | –
CCCCC1C=Cc2c3c(c4oc(=O)c(Cl)c(CCC)c4c2O1)C(=O)CC(C)O3 (stereo not drawn) [Example 49, 10-methyl-4-n-propyl-3-chloro-6-n-butyl-2H,6H,12H-benzo[1,2-b:3,4-b′:5,6-b″]-tripyranyl-2,12-dione] | 6.4 (≈ 15.3 µM) | 4.62 (≈ 11.1 µM) | 146 to 149 | < 10 | –
Cc1cc(=O)oc2c3c(c4c(c12)OC(C)(C)C=C4)OC(C)CC3=O (stereo not drawn) [Example 1, 4,6,6,10-tetramethyl-2H,6H,12H-benzo[1,2-b:3,4-b′:5,6-b″]-tripyranyl-2,12-dione] | 59.5 (≈ 182 µM) | 39.2 (≈ 120 µM) | 213 to 215 | – | –
CCCC1C=Cc2c3c(c4oc(=O)c(F)c(CC)c4c2O1)C(=O)CC(C)O3 (stereo not drawn) [Example 39, 10-methyl-4-ethyl-6-n-propyl-3-fluoro-2H,6H,12H-benzo[1,2-b:3,4-b′:5,6-b″]-tripyranyl-2,12-dione] | 9.94 (≈ 26.7 µM) | 5.09 (≈ 13.7 µM) | 151 to 153 | < 10 | –
CCCc1cc(=O)oc2c3c(c4c(c12)OC(C)(C)C=C4)OC(CNS(=O)(=O)c1ccc(NC(C)=O)cc1)CC3=O (stereo not drawn) [Example 61, 6,6-dimethyl-4-n-propyl-10-(p-acetylaminophenylsulfonamido)methylene-2H,6H,12H-benzo[1,2-b:3,4-b′:5,6-b″]-tripyranyl-2,12-dione] | > 100 | 17.2 (≈ 30.4 µM) | 127 to 128.5 | – | –
CCCc1c(F)c(=O)oc2c3c(c4c(c12)OC(C)(C)C=C4)OC(C)CC3=O (stereo not drawn) [Example 31, 6,6,10-trimethyl-3-fluoro-4-n-propyl-2H,6H,12H-benzo[1,2-b:3,4-b′:5,6-b″]-tripyranyl-2,12-dione] | – | – | – | – | inhibition at 1 µM (HIV-1): 45.3%
CCCCc1cc(=O)oc2c3c(c4c(c12)OC(CCC)C=C4)OC(C)CC3=O (stereo not drawn) [Example 37, 10-methyl-6-n-propyl-4-n-butyl-2H,6H,12H-benzo[1,2-b:3,4-b′:5,6-b″]-tripyranyl-2,12-dione] | 8.36 (≈ 21.9 µM) | 5.33 (≈ 13.9 µM) | 135 to 138 | < 10 | –
CC1CC(=O)c2c(c3c(c4c5c(c(=O)oc24)CCC5)OC(C)(C)C=C3)O1 (stereo not drawn) [Example 26, 6,6,10-trimethyl-3,4-cyclopentyl-2H,6H,12H-benzo[1,2-b:3,4-b′:5,6-b″]-tripyranyl-2,12-dione] | 43.6 (≈ 124 µM) | 23.9 (≈ 67.8 µM) | 108 to 109 | – | –
CC1CC(=O)c2c(c3c(c4c(CN5CCNCC5)cc(=O)oc24)OC(C)(C)C=C3)O1 (stereo not drawn) [Example 6, 6,6,10-trimethyl-4-piperazidinylmethylene-10,11-dihydro-6H-benzo[2,3-f:2′,3′-h]-tripyranyl-2,12-dione] | > 100 | 52.4 (≈ 128 µM) | 156 to 158 | – | –
CCCc1cc(=O)oc2c3c(c4c(c12)OC(c1ccccc1)C=C4)OCC(C)C3=O (stereo not drawn) [Example 78, 4-n-propyl-6-phenyl-11-methyl-2H,6H,12H-benzo[1,2-b:3,4-b′:5,6-b″]-tripyranyl-2,12-dione] | > 100 | 99 (≈ 246 µM) | 187 to 189 | – | –
CCCc1cc(=O)oc2c3c(c4c(c12)OC(CCC)C=C4)OCC(C)C3=O (stereo not drawn) [Example 51] | 0.496 (≈ 1.35 µM) | < 0.2 | 148 to 150 | < 10 | –
CCCc1cc(=O)oc2c3c(c4c(c12)OC(C)(C)C=C4)OC(CCC)CC3=O (stereo not drawn) [Example 14, 6,6-dimethyl-4,10-di-n-propyl-2H,6H,12H-benzo[1,2-b:3,4-b′:5,6-b″]-tripyranyl-2,12-dione] | 6.44 (≈ 16.8 µM) | – | – | < 10 | IC50 [1]: 5.72 µg/mL (≈ 15 µM); pEC50 (HIV-1; Human immunodeficiency virus 1): 7.49; inhibition at 1 µM (HIV-1): 61.9%; anti-HIV-1 activity in vitro compared to (+)-calanolide A (HIV-1; in words): much higher inhibitory activity; therapeutic index, in words (HIV-1; in words): high therapeutic index; Therapeutic index (TI) = 50% cytotoxicity doses/50% effective dose (HIV-1; value in brackets after EC50): 102-308
